Where “and” joins values, the source holds several entries; their conditions need not be identical. Equal entries are not always repeated. Toxic doses and inconclusive results are not listed. Numbered stars: 1 amine (or outer) side, 2 acyl side, 3 side chain; on linkers, the order of the positions; unused ones are H or OH. Bridge positions count the residues as written; N and C are the ends. Square brackets hold non-standard residues; d marks the D form. Peptide text beside a SMILES is read from it. I, II: the chains in the order shown. Actinocin(9to1) = Cc1c2oc3c(C)ccc(C(=O)[*:1])c3nc-2c(C(=O)[*:2])c(N)c1=O; aThr = C[C@H](O)[C@H](N)C(=O)O; NMeV = CN[C@H](C(=O)O)C(C)C; Sar = CNCC(=O)O
Test system: Gardner 6C3HED lymphosarcoma ip, C3AKF1 mice, survival T/C
Assay: NCI In Vivo Anticancer Drug Screen. Data for tumor model Lymphosarcoma Gardner 6C3HED (intraperitoneal) in C3AKF1 (CHKRF1) mice
Details: endpoint: survival time, mean or median, higher = longer survival
Experimental: The antitumor activity of compounds was measured in mice bearing transplantable tumors. Survival or tumor size were measured and the results are expressed as the measurement made in the treated group (T) divided by the measurement made in the vehicle treated control group (C). The tumor model used in this assay is Lymphosarcoma Gardner 6C3HED (intraperitoneal) in C3AKF1 (CHKRF1) mice

[1] = dose: 31.3 mg/kg/injection, schedule: Q01DX010 (ip), vehicle: saline
[2] = dose: 62.5 mg/kg/injection, schedule: Q01DX010 (ip), vehicle: saline
[3] = dose: 2.0 mg/kg/injection, schedule: Q01DX010 (ip), vehicle: other
[4] = dose: 4.0 mg/kg/injection, schedule: Q01DX010 (ip), vehicle: other
[5] = dose: 40.0 mg/kg/injection, schedule: Q01DX010 (ip), vehicle: saline
[6] = dose: 2.0 mg/kg/injection, schedule: Q01DX010 (ip), vehicle: saline
[7] = dose: 8.0 mg/kg/injection, schedule: Q01DX010 (ip), vehicle: saline
[8] = dose: 16.0 mg/kg/injection, schedule: Q01DX010 (ip), vehicle: saline
[9] = dose: 25.0 mg/kg/injection, schedule: Q01DX010 (ip), vehicle: saline
[10] = dose: 50.0 mg/kg/injection, schedule: Q01DX010 (ip), vehicle: saline
[11] = dose: 10.0 mg/kg/injection, schedule: Q01DX010 (ip), vehicle: saline
[12] = dose: 20.0 mg/kg/injection, schedule: Q01DX010 (ip), vehicle: saline
[13] = dose: 32.0 mg/kg/injection, schedule: Q01DX010 (ip), vehicle: saline
[14] = dose: 64.0 mg/kg/injection, schedule: Q01DX010 (ip), vehicle: saline
[15] = dose: 6.25 mg/kg/injection, schedule: Q01DX010 (ip), vehicle: saline
[16] = dose: 125.0 mg/kg/injection, schedule: Q01DX010 (ip), vehicle: saline
[17] = dose: 5.0 mg/kg/injection, schedule: Q01DX010 (ip), vehicle: saline
[18] = dose: 0.5 mg/kg/injection, schedule: Q01DX010 (ip), vehicle: saline
[19] = dose: 1.0 mg/kg/injection, schedule: Q01DX010 (ip), vehicle: saline
[20] = dose: 12.5 mg/kg/injection, schedule: Q01DX010 (ip), vehicle: saline

Structure (SMILES): CN(C)c1ccc(Nc2c3ccccc3nc3ccccc23)cc1
- T/C (dose: 36.0 mg/kg/injection, schedule: Q01DX010 (ip), vehicle: saline): 107 % of control
- T/C (dose: 54.0 mg/kg/injection, schedule: Q01DX010 (ip), vehicle: saline): 185 % of control
- T/C (dose: 80.0 mg/kg/injection, schedule: Q01DX010 (ip), vehicle: saline): 240 % of control
- T/C (dose: 120.0 mg/kg/injection, schedule: Q01DX010 (ip), vehicle: saline): 214 % of control

Structure (SMILES): CCCCNc1ncnc2c1cnn2C
- T/C [1]: 100 % of control and 104 % of control
- T/C [2]: 95 % of control and 100 % of control

Structure (SMILES): O=c1cnn(C2OC(CO)C(O)C2O)c(=O)[nH]1 (stereo not given)
- T/C (dose: 200.0 mg/kg/injection, schedule: Q01DX010 (ip), vehicle: saline): 105 % of control and 115 % of control
- T/C (dose: 400.0 mg/kg/injection, schedule: Q01DX010 (ip), vehicle: saline): 115 % of control
- T/C (dose: 800.0 mg/kg/injection, schedule: Q01DX010 (ip), vehicle: saline): 110 % of control and 120 % of control
- T/C (dose: 1600.0 mg/kg/injection, schedule: Q01DX010 (ip), vehicle: saline): 95 % of control

Structure (SMILES): Cc1c2oc3c(C)ccc(C(=O)N[C@@H]4C(=O)N[C@H](C(C)C)C(=O)N5CCC[C@H]5C(=O)N(C)CC(=O)N(C)[C@@H](C(C)C)C(=O)O[C@H]4C)c3nc-2c(C(=O)N[C@@H]2C(=O)N[C@H](C(C)C)C(=O)N3CCC[C@H]3C(=O)N(C)CC(=O)N(C)[C@@H](C(C)C)C(=O)O[C@H]2C)c(N)c1=O (I: [aThr][dV]P[Sar][NMeV] / II: [aThr][dV]P[Sar][NMeV]; ester I:1-I:C, II:1-II:C; linker I:N-II:N via Actinocin(9to1))
- T/C (dose: 0.01 mg/kg/injection, schedule: Q01DX010 (ip), vehicle: acid diluted with saline): 100 % of control and 110 % of control
- T/C (dose: 0.03 mg/kg/injection, schedule: Q01DX010 (ip), vehicle: acid diluted with saline): 120 % of control

Structure (SMILES): O=C(Nc1ccc(C2=NCCCN2)cc1)c1ccc(C(=O)Nc2ccc(C3=NCCCN3)cc2)cc1
- T/C (dose: 1.0 mg/kg/injection, schedule: Q01DX010 (ip), vehicle: other): 227 % of control and 241 % of control
- T/C [3]: 300 % of control
- T/C [4]: 86 % of control

Structure (SMILES): CN(N=O)C(=O)NC(C=O)C(O)C(O)C(O)CO (stereo not given)
- T/C [5]: 300 % of control
- T/C (dose: 60.0 mg/kg/injection, schedule: Q01DX010 (ip), vehicle: saline): 300 % of control
- T/C (dose: 135.0 mg/kg/injection, schedule: Q01DX010 (ip), vehicle: saline): 95 % of control and 100 % of control

Structure (SMILES): CC(CCC(C)OS(C)(=O)=O)OS(C)(=O)=O (stereo not given)
- T/C [6]: 100 % of control
- T/C (dose: 4.0 mg/kg/injection, schedule: Q01DX010 (ip), vehicle: saline): 104 % of control
- T/C [7]: 104 % of control
- T/C [8]: 116 % of control

Structure (SMILES): N=C(N)c1ccc(Nc2ccc(C(=N)N)cc2)cc1
- T/C (dose: 3.0 mg/kg/injection, schedule: Q01DX010 (ip), vehicle: saline): 103 % of control
- T/C (dose: 6.0 mg/kg/injection, schedule: Q01DX010 (ip), vehicle: saline): 96 % of control
- T/C (dose: 12.0 mg/kg/injection, schedule: Q01DX010 (ip), vehicle: saline): 96 % of control

Structure (SMILES): O=C1C(NC(=O)C2CCCCC2)=C(N2CC2)C(=O)C(NC(=O)C2CCCCC2)=C1N1CC1
- T/C [9]: 92 % of control
- T/C [10]: 92 % of control

Structure (SMILES): O=c1[nH]cc(F)c(=O)[nH]1
- T/C [11]: 158 % of control
- T/C [12]: 295 % of control
- T/C [5]: 87 % of control

Structure (SMILES): Nc1nc(SCc2ccccc2)c2[nH]cnc2n1
- T/C [7]: 95 % of control and 100 % of control
- T/C [8]: 95 % of control and 104 % of control
- T/C [13]: 90 % of control and 91 % of control and 104 % of control
- T/C [14]: 87 % of control and 100 % of control (2×)

Structure (SMILES): O=NN(CCCl)C(=O)NCCCl
- T/C [15]: 300 % of control
- T/C (dose: 16.25 mg/kg/injection, schedule: Q01DX010 (ip), vehicle: saline): 257 % of control

Structure (SMILES): CCn1cnc2c(=S)nc[nH]c21
- T/C (dose: 15.6 mg/kg/injection, schedule: Q01DX010 (ip), vehicle: saline): 91 % of control and 104 % of control
- T/C [1]: 87 % of control and 89 % of control and 104 % of control
- T/C [2]: 114 % of control
- T/C [16]: 87 % of control and 104 % of control

Structure (SMILES): C=CC(CN1CC1)OC(C)=O (stereo not given)
- T/C [6]: 92 % of control

Structure (SMILES): Cc1cc(N(CCCl)CCCl)ccc1N=Nc1ccccc1C(=O)O
- T/C [17]: 109 % of control and 116 % of control
- T/C [11]: 113 % of control
- T/C [12]: 118 % of control

Structure (SMILES): C1CN1c1nc(N2CC2)nc(N2CC2)n1
- T/C (dose: 0.13 mg/kg/injection, schedule: Q01DX010 (ip), vehicle: saline): 100 % of control and 105 % of control
- T/C (dose: 0.25 mg/kg/injection, schedule: Q01DX010 (ip), vehicle: saline): 110 % of control and 115 % of control
- T/C [18]: 120 % of control
- T/C [19]: 95 % of control
- T/C (dose: 1.5 mg/kg/injection, schedule: Q01DX010 (ip), vehicle: saline): 110 % of control

Structure (SMILES): NC(Cc1c[nH]c2ccc(N(CCCl)CCCl)cc12)C(=O)O (stereo not given)
- T/C [18]: 159 % of control
- T/C [19]: 159 % of control and 181 % of control
- T/C [6]: 195 % of control and 231 % of control

Structure (SMILES): CS(=O)(=O)OCCCCOS(C)(=O)=O
- T/C (dose: 1.56 mg/kg/injection, schedule: Q01DX010 (ip), vehicle: saline): 100 % of control
- T/C (dose: 3.13 mg/kg/injection, schedule: Q01DX010 (ip), vehicle: saline): 100 % of control and 104 % of control

Structure (SMILES): Clc1ncnc2nc[nH]c12
- T/C (dose: 7.5 mg/kg/injection, schedule: Q01DX010 (ip), vehicle: saline): 87 % of control and 95 % of control
- T/C (dose: 15.0 mg/kg/injection, schedule: Q01DX010 (ip), vehicle: saline): 95 % of control
- T/C (dose: 30.0 mg/kg/injection, schedule: Q01DX010 (ip), vehicle: saline): 95 % of control

Structure (SMILES): COS(C)(=O)=O
- T/C [20]: 111 % of control
- T/C [10]: 300 % of control
- T/C (dose: 100.0 mg/kg/injection, schedule: Q01DX010 (ip), vehicle: saline): 176 % of control

Structure (SMILES): O=c1cn[nH]c(=O)[nH]1
- T/C [2]: 100 % of control and 104 % of control
- T/C [16]: 104 % of control
- T/C (dose: 250.0 mg/kg/injection, schedule: Q01DX010 (ip), vehicle: saline): 90 % of control and 95 % of control
- T/C (dose: 500.0 mg/kg/injection, schedule: Q01DX010 (ip), vehicle: saline): 90 % of control

Structure (SMILES): c1ccc(CNc2ncnc3[nH]ncc23)cc1
- T/C [7]: 100 % of control and 119 % of control
- T/C [8]: 104 % of control and 105 % of control
- T/C [13]: 90 % of control and 95 % of control
- T/C [14]: 90 % of control and 95 % of control

Structure (SMILES): C[C@@H]1C[C@@H]([C@H](O)CC2CC(=O)NC(=O)C2)C(=O)[C@@H](C)C1
- T/C [17]: 95 % of control and 104 % of control
- T/C [11]: 90 % of control and 100 % of control
- T/C [12]: 91 % of control and 118 % of control

Structure (SMILES): CCOC(=O)NP(=O)(N1CC1(C)C)N1CC1(C)C (stereo not given)
- T/C [1]: 103 % of control
- T/C [2]: 111 % of control

Structure (SMILES): N=[N+]=CC(=O)OCC(N)C(=O)O (stereo not given)
- T/C [15]: 150 % of control
- T/C [9]: 95 % of control

Structure (SMILES): O=C(Nc1ccc(C2=NCCCN2)cc1)c1ccc(NC(=O)c2ccc(C3=NCCCN3)cc2)cc1
- T/C [3]: 183 % of control and 250 % of control
- T/C [4]: 220 % of control and 300 % of control
- T/C (dose: 8.0 mg/kg/injection, schedule: Q01DX010 (ip), vehicle: other): 177 % of control and 187 % of control

Structure (SMILES): CC/C(=C(/CC)c1ccc(O)cc1)c1ccc(O)cc1
- T/C (dose: 12.5 mg/kg/injection, schedule: Q01DX010 (sc), vehicle: steriod suspending solution): 104 % of control and 105 % of control
- T/C (dose: 25.0 mg/kg/injection, schedule: Q01DX010 (sc), vehicle: steriod suspending solution): 100 % of control and 105 % of control
- T/C (dose: 50.0 mg/kg/injection, schedule: Q01DX010 (sc), vehicle: steriod suspending solution): 95 % of control and 100 % of control
- T/C (dose: 100.0 mg/kg/injection, schedule: Q01DX010 (sc), vehicle: steriod suspending solution): 95 % of control and 100 % of control

Structure (SMILES): CCN(CC)CCNc1ccc(C)c2sc3ccccc3c(=O)c12
- T/C [20]: 100 % of control
- T/C [9]: 114 % of control
- T/C [10]: 91 % of control and 114 % of control
